Test results: patent US20240140949A1, “ANTI-CANCER PHARMACEUTICAL COMPOSITION FOR TARGETING HEAT SHOCK PROTEIN 70, CONTAINING INDOLOQUINAZOLIDINE ALKALOID” (SEOUL NATIONAL UNIVERSITY R & DB FOUNDATION, priority 2021, published 2024)

Columns and labels:
[1] = test system: Hsp70 protein and Hsp70/Hsp90 client proteins (Akt, Src, and MEK); assay: Western blot of Hsp70 and client proteins in lung cancer cells; type: cell-based, human
Description: (§1) Human lung cancer cell lines (H1299, H460, A549, H226B, and PC9), breast cancer cell line (MDA-MB-231), liver cancer cell line (Hep3B), kidney cancer cell line (786-0), prostate cancer cell lines (DU145 and PC-3), and mouse lung cancer cell line (Lewis Lung Carcinoma, LLC) were purchased from ATCC (American Type Culture Collection) or obtained from Dr. John V. Heymach of MD Anderson Cancer Center, USA. The human head and neck cancer cell line (UMSCC38) was obtained from Dr. Jeffrey N. Myers (MD Anderson Cancer Center, USA). Human colon cancer cell lines (HCT116 and HT-29) and glioblastoma cell line (U87MG) were obtained from Professor Sang Kook Lee (Seoul National University College of Pharmacy). The human kidney cancer cell line (Caki-1), and gastric cancer cell line (SNU-638) were purchased from the Korean Cell Line Bank. The chemotherapy-resistant cells [paclitaxel-resistant H460 cells (H460/PcR), paclitaxel-resistant H226B cells (H226B/PcR), cisplatin-resistant H1299 cells (H1299/CsR), pemetrexed-resistant H1299 cells (H1299/PmR)] and molecularly targeted anticancer therapy-resistant cells [erlotinib-resistant PC9 cells (PC9/ER)] were constructed by treating the respective anti-cancer drugs for more than three months. H1299, H460, H226B, PC9, Hep3B, 786-0, DU145, PC-3, HCT116, HT-29, SNU-638, chemotherapeutic resistant cells, and molecularly targeted anticancer therapy-resistant cells were cultured in RPMI 1640 media containing 10% fetal bovine serum (FBS) and antibiotics at 37° C. under 5% CO2 conditions, while MDA-MB-231, UMSCC38, U87MG, Caki-1 were cultured in DMEM media containing 10% FBS and antibiotics at 37° C. under 5% CO2 conditions. Cells were passaged 1-2 times per week.
The cells treated with the drug were treated with RIPA lysis buffer [50 mM Tris-HCl (pH 7.4), 150 mM NaCl, 1 mM EDTA, 0.25% sodium deoxycholate, 1% Triton X-100, 100 mM NaF, 5 mM Na3VO4, 1 mM PMSF, 1 μg/mL aprotinin, 1 μg/mL leupeptin, and 1 μg/mL pepstatin], followed by incubation on ice for 10 minutes and centrifugation at 13,000 rpm for 15 minutes to extract proteins. The proteins were quantified by BCA assay and equal amounts of proteins were separated by 8-10% SDS-PAGE. The separated proteins were transferred to a PVDF membrane, and the areas of the membrane not transferred with protein were blocked by incubating the membrane in 5% skim milk solution or 3% BSA solution diluted in TBST at room temperature for 1 hour. The membrane was then incubated in a primary antibody solution diluted 1:1,000 in 3% BSA at 4° C. for more than 12 hours. The primary antibody used was either anti-Hsp70 or anti-actin, with the anti-Hsp70 antibody obtained from Enzo Life Science and the actin antibody obtained from Santa Cruz Biotechnology. After incubation, the membrane was washed for 1 hour while changing TBST several times, and then incubated for 1 hour at room temperature with a secondary antibody (GeneTex) diluted 1:5,000 in 5% skim milk solution. After incubation, the membrane was washed for 1 hour while changing TBST several times, and then treated with an enhanced chemiluminescence (ECL) solution. The expression of Hsp70 or Actin protein was detected using LAS4000.

cancer cell = assay: Cancer cell survival inhibitory activity (crystal violet assay); type: cell-based; conditions: crystal violet assay (FIG. 19)
Method: (§2) The cancer cell lines were seeded in a 96-well plate at a density of 2×10^3 cells per well and cultured for 24 hours to allow the cells to attach. The cells were then treated with diluted drugs in media for 3 days and cell viability was assessed using MTT assay or crystal violet (CB) assay. For the MTT assay, MTT solution dissolved in PBS was added to achieve a final concentration of 500 μg/mL and incubated for 2-4 hours, after which the medium was removed and the formed formazan was dissolved in 100% DMSO, followed by measuring the absorbance at 570 nm. For the CB assay, the cultured cells were fixed with 100% methanol, stained with a 0.025% crystal violet solution, dissolved in 1% SDS solution, and the absorbance was measured at 570 nm. Cell viability was calculated as the percentage of absorbance change in drug-treated group compared to vehicle (DMSO) treated control group.

H1299 lung cancer cells = assay: Cell viability (MTT assay) in H1299 cells; type: cell-based, human; conditions: 100 nM, 3 days, MTT, compared with evodiamine and EV501-EV509 (FIG. 1)
Description: as §1, §2

LLC-Luc tumors = assay: Survival in LLC-Luc transplant allograft (lung metastasis) model; type: in vivo, mouse; conditions: C57BL/6 mice, 20 mg/kg orally six times a week (FIG. 8)
Method: (§3) H460 cells (5×10^6 cells/spot) or lung cancer patient-derived tumors were implanted into the flank of 6-week-old NOD/SCID mice, or LLC-Luc cells (5×10^5 cells/spot) were implanted into the flank of 8-week-old C57BL/6 mice to form tumors. When the tumor volume reached 50-100 mm^3, the mice were divided into control and experimental groups (with at least 6 mice assigned to each group), and the control group was administered with vehicle (10% DMSO and 40% PEG400 solution prepared in sterile distilled water), while the experimental group was administered with EV507 (20 mg/kg) six times a week orally. The major and minor axes of the tumor were measured, and the tumor size was measured at least 3-4 times a week, and the body weight was measured at least once a week to evaluate the toxicity of the drug. Also, the survival of C57BL/6 mice implanted with LLC-Luc cells was monitored to determine the survival curve. The tumor volume was calculated as (width)^2× length×0.5.
Moreover, it is known that in the LLC-Luc transplant allograft model that spontaneously generates pulmonary metastatic cancer, mouse mortality occurs due to the proliferation of transplanted LLC-Luc tumors and the formation of pulmonary metastatic cancer. In this allograft model, EV507 was administered to confirm its inhibitory effect on mouse mortality caused by tumor proliferation.

lung cancer cell = assay: Cancer cell survival inhibitory activity (MTT assay) of EV501 to EV509; type: cell-based; conditions: 0.5 μM (lowest concentration), MTT assay (FIG. 18)
Method: as §2

[2] = test system: cancer cell lines of various origins; assay: Anchorage-dependent colony formation in cancer cell lines of various origins; type: cell-based, human; conditions: 50 nM, 2 weeks (FIG. 3)
Description: Human lung cancer cell lines (H1299, H460, A549, H226B, and PC9), breast cancer cell line (MDA-MB-231), liver cancer cell line (Hep3B), kidney cancer cell line (786-0), prostate cancer cell lines (DU145 and PC-3), and mouse lung cancer cell line (Lewis Lung Carcinoma, LLC) were purchased from ATCC (American Type Culture Collection) or obtained from Dr. John V. Heymach of MD Anderson Cancer Center, USA. The human head and neck cancer cell line (UMSCC38) was obtained from Dr. Jeffrey N. Myers (MD Anderson Cancer Center, USA). Human colon cancer cell lines (HCT116 and HT-29) and glioblastoma cell line (U87MG) were obtained from Professor Sang Kook Lee (Seoul National University College of Pharmacy). The human kidney cancer cell line (Caki-1), and gastric cancer cell line (SNU-638) were purchased from the Korean Cell Line Bank. […]
Cancer cell lines were seeded in a 24-well or 6-well plate at 100-250 cells per well and allowed to attach, followed by treatment with drugs diluted in media and cultured for 2-3 weeks. Formed colonies were stained with crystal violet and counted. The drug's colony formation inhibitory effect was calculated as the percentage of colony number change in the drug-treated group compared to the vehicle (DMSO)-treated control group.

H460 xenograft tumors = assay: H460 xenograft tumor growth in NOD/SCID mice; type: in vivo, mouse; conditions: 20 mg/kg orally six times a week, vs control group (FIG. 7)
Method: as §3

C=CCN1c2ccccc2C(=O)N2CCc3c([nH]c4ccc(O)cc34)C21 (centres unmarked) [EV507]
expression of Hsp70 protein and Hsp70/Hsp90 client proteins (Akt, Src, and MEK) ([1]; H1299, H460, A549, H226B lung cancer cell lines (FIG. 4)): clear reduction
expression of Hsp70 and Src and Akt (client proteins of Hsp70/Hsp90) ([1]; Western blot (FIG. 21)): decrease
cancer cell survival inhibitory activity (cancer cell): excellent
inhibition of cancer cell survival (cell viability) (H1299 lung cancer cells): most excellent efficacy
mouse mortality (LLC-Luc tumors): significantly reduced
inhibition at 0.5 µM (lung cancer cell): > 65%
formation of colonies under anchorage-dependent conditions [2]: significantly inhibited
tumor growth (H460 xenograft tumors): significantly inhibited
